Tests used:
[1] = systemic administration, clinical use; cited from earlier work
[2] = test system: colon carcinoma tumor mass; assay: Photodynamic therapy of a solid tumor with implanted LED light source probes after oral ALA; assay type: in vivo, human
Source text: A patient in the terminal phase of recurrent malignant colon cancer presented with a protruding colon carcinoma tumor mass of approximately 500 grams and approximately 13 cm in diameter, which extended through the patient's dermis. Due to the advanced state of the patient's disease and due to the highly vascularized nature of this tumor mass, resection was not feasible. Further, this large tumor mass presented a significant amount of pain and discomfort to the patient, as well as greatly impairing the patient's ability to lie flat.
Six separate light source probes, each including a linear array of LEDs, were surgically implanted in this large human tumor using standard surgical procedures. An intensity of about 25-30 mW of light from each light source probe (650 nm peak wavelength) was delivered to the tumor for 40 hours following oral administration to the patient of a single dose of an (ALA) photosensitizer agent (60 mg/kg). However, after 18 hours, two of the light source probes became unseated from the tumor mass and were disconnected from the electrical power supply used to energize the LEDs on each probe. The total fluence delivered to the tumor bed during this single extended duration treatment was in excess of 20,000 Joules. […] The extent of this PDT induced necrotic effect in a large volume of tumor tissue was totally unexpected and has not been described before in any PDT studies in subjects in vivo or clinically. Over the course of four weeks following PDT, the necrotic tumor tissue was debrided from the patient resulting in a reduction of approximately 500 grams of tumor tissue.
The fluence rate employed in this Example represented about 150-180 mW/cm^2, with a total fluence more than 20,000 Joules. The preferable fluence rate contemplated more broadly by the present invention is between about 5 mW/cm^2 and about 100 mW/cm^2, more preferably, between about 10 mW/cm^2 and about 75 mW/cm^2, and most preferably, between about 15 mW/cm^2 and about 50 mW/cm^2.

virus-infected T cells = virus-infected T cells treated with BPD, exposed to light; Blood Cells 18:129-40 (1992); cited from earlier work

CCOC(=O)C1=Cc2c3nc(cc4nc(cc5[n-]c(cc6[n-]c2c(C)c6CC)c(C)c5CC)C(C)=C4CC)[C@@H](C)[C@]13CC.[Cl-].[Cl-].[Sn] (racemic) [PURLYTIN]
duration of general dermal photosensitivity / sensitization of the skin to light [1]: at least several weeks

NCC(=O)CCC(=O)O [ALA, aminolevulinic acid]
Extensive tumor necrosis, radius around each of the light source probes ([2]; one patient, single oral dose 60 mg/kg, 650 nm light, 40 hours of PDT, total fluence in excess of 20,000 Joules): up to 5 cm
collateral damage to surrounding normal tissue ([2]; one patient, single oral dose 60 mg/kg, after 40 hours of PDT): no collateral damage
reduction of tumor tissue (necrotic tumor tissue debrided) ([2]; over the course of four weeks following PDT, tumor mass of approximately 500 grams): approximately 500 grams

Oc1cccc(-c2c3nc(c(-c4cccc(O)c4)c4ccc([nH]4)c(-c4cccc(O)c4)c4nc(c(-c5cccc(O)c5)c5ccc2[nH]5)CC4)C=C3)c1 [FOSCAN]
duration of general dermal photosensitivity / sensitization of the skin to light [1]: at least several weeks

benzoporphyrin derivatives [BPD]
effect on T cell membrane after exposure to light (virus-infected T cells): holes developed in the T cell membrane and increased in size until the membrane completely decomposed

sodium porfimer [PHOTOPHRIN]
duration of general dermal photosensitivity / sensitization of the skin to light [1]: up to six weeks

— patent publication US6602274B1, “Targeted transcutaneous cancer therapy” (Light Sciences Corporation, priority 1999, dated 2003)
